Relative viability data for seven cell lines are collected here from the supplement of paper PMC10307832.

What all share (test): relative viability (nuclei count vs DMSO), 5 days (fraction); higher = more cells survive
Compound in assay [1]: Nc1ccn([C@@H]2O[C@H](CO)[C@@H](O)C2(F)F)c(=O)n1 [Gemcitabine] + CS(=O)(=O)N1CCN(Cc2cc3nc(-c4cccc5[nH]ncc45)nc(N4CCOCC4)c3s2)CC1 [Pictilisib] (partner 1 µM)
Put shortly:
(§1)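 One day after seeding in 1536-well plates, lung cancer cell lines were dosed by pin tool. Dosing was either single-drug or a fixed anchor-drug dose plus five library-drug doses (not always all listed) in √10 steps. After 5 days, nuclei were stained in one fix-and-stain step and counted on 4× images, and relative viability is the nuclei count of treated wells over that of vehicle wells, given as the median of duplicate plates.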

Compound in assay [2]: Nc1ccn([C@@H]2O[C@H](CO)[C@@H](O)C2(F)F)c(=O)n1 [Gemcitabine] + Nc1ncn([C@H]2C[C@H](O)[C@@H](CO)O2)c(=O)n1 [Decitabine] (partner 2 µM)
Put shortly:
as §1

Compound in assay [3]: Nc1ccn([C@@H]2O[C@H](CO)[C@@H](O)C2(F)F)c(=O)n1 [Gemcitabine] + N=C(N)NC(=N)NCCc1ccccc1 [Phenformin] (partner 250 µM)
Put shortly:
as §1

Compound in assay [4]: Nc1ccn([C@@H]2O[C@H](CO)[C@@H](O)C2(F)F)c(=O)n1 [Gemcitabine] + CC(=O)c1c(C)c2cnc(Nc3ccc(N4CCNCC4)cn3)nc2n(C2CCCC2)c1=O [Palbociclib] (partner 0.5 µM)
Put shortly: as §1

Take NCI-H1792: the relative viability was 0.238 in assay [1] (first compound 0.001 µM); 0.226 in assay [1] (first compound 0.003162 µM); 0.111 in assay [1] (first compound 0.01 µM); 0.0979 in assay [1] (first compound 0.03162 µM); 0.0699 in assay [1] (first compound 0.1 µM); 0.406 in assay [2] (first compound 0.001 µM). Moreover, the relative viability turned out to be 0.291 in assay [2] (first compound 0.003162 µM); 0.0943 in assay [2] (first compound 0.01 µM); 0.0857 in assay [2] (first compound 0.03162 µM); 0.0713 in assay [2] (first compound 0.1 µM); 0.291 in assay [3] (first compound 0.001 µM); 0.104 in assay [3] (first compound 0.003162 µM). Besides, the relative viability in assay [3] (first compound 0.01 µM) was 0.0944; in assay [3] (first compound 0.03162 µM), 0.119; in assay [3] (first compound 0.1 µM) it was 0.0679; in assay [4] (first compound 0.001 µM) it was 0.699; in assay [4] (first compound 0.003162 µM) it was 0.596; in assay [4] (first compound 0.01 µM), 0.395. Moreover, the relative viability is 0.254 in assay [4] (first compound 0.03162 µM) and 0.194 in assay [4] (first compound 0.1 µM).
As for NCI-H2023, the relative viability was 0.248 in assay [1] (first compound 0.001 µM); 0.266 in assay [1] (first compound 0.003162 µM); 0.143 in assay [1] (first compound 0.01 µM); 0.106 in assay [1] (first compound 0.03162 µM); 0.0734 in assay [1] (first compound 0.1 µM); 0.224 in assay [2] (first compound 0.001 µM). Also, the relative viability stood at 0.217 in assay [2] (first compound 0.003162 µM); 0.126 in assay [2] (first compound 0.01 µM); 0.0929 in assay [2] (first compound 0.03162 µM); 0.0689 in assay [2] (first compound 0.1 µM); 0.35 in assay [3] (first compound 0.001 µM); 0.327 in assay [3] (first compound 0.003162 µM). In addition, the relative viability in assay [3] (first compound 0.01 µM) came to 0.192; in assay [3] (first compound 0.03162 µM), 0.0945; in assay [3] (first compound 0.1 µM) it was 0.0668; in assay [4] (first compound 0.001 µM), 0.354; in assay [4] (first compound 0.003162 µM), 0.39; in assay [4] (first compound 0.01 µM) it was 0.218. For the same cell line, the relative viability in assay [4] (first compound 0.03162 µM) is 0.138; in assay [4] (first compound 0.1 µM), 0.0722.
With COR-L 105, the relative viability in assay [1] (first compound 0.001 µM) is 0.43; in assay [1] (first compound 0.003162 µM), 0.377; in assay [1] (first compound 0.01 µM), 0.364; in assay [1] (first compound 0.03162 µM) it was 0.27; in assay [1] (first compound 0.1 µM), 0.269; in assay [2] (first compound 0.001 µM), 0.68. Further, the relative viability in assay [2] (first compound 0.003162 µM) came out at 0.596; in assay [2] (first compound 0.01 µM), 0.46; in assay [2] (first compound 0.03162 µM), 0.37; in assay [2] (first compound 0.1 µM) it was 0.3; in assay [3] (first compound 0.001 µM) it was 0.563; in assay [3] (first compound 0.003162 µM) it was 0.48. For the same cell line, the relative viability in assay [3] (first compound 0.01 µM) is 0.308; in assay [3] (first compound 0.03162 µM) it was 0.271; in assay [3] (first compound 0.1 µM) it was 0.203; in assay [4] (first compound 0.001 µM), 0.398; in assay [4] (first compound 0.003162 µM) it was 0.4; in assay [4] (first compound 0.01 µM), 0.366. In addition, the relative viability in assay [4] (first compound 0.03162 µM) amounted to 0.347; in assay [4] (first compound 0.1 µM), 0.326.
As to NCI-H1734, the relative viability in assay [1] (first compound 0.001 µM) was 0.455; in assay [1] (first compound 0.003162 µM) it was 0.387; in assay [1] (first compound 0.01 µM), 0.233; in assay [1] (first compound 0.03162 µM), 0.151; in assay [1] (first compound 0.1 µM), 0.113; in assay [2] (first compound 0.001 µM), 0.536. Besides, the relative viability was 0.343 in assay [2] (first compound 0.003162 µM); 0.192 in assay [2] (first compound 0.01 µM); 0.134 in assay [2] (first compound 0.03162 µM); 0.102 in assay [2] (first compound 0.1 µM); 0.337 in assay [3] (first compound 0.001 µM); 0.29 in assay [3] (first compound 0.003162 µM). Further, the relative viability came out at 0.163 in assay [3] (first compound 0.01 µM); 0.0972 in assay [3] (first compound 0.03162 µM); 0.106 in assay [3] (first compound 0.1 µM); 0.318 in assay [4] (first compound 0.001 µM); 0.293 in assay [4] (first compound 0.003162 µM); 0.174 in assay [4] (first compound 0.01 µM). For the same cell line, the relative viability in assay [4] (first compound 0.03162 µM) was determined as 0.149; in assay [4] (first compound 0.1 µM) it was 0.131.
In the case of NCI-H3122, the relative viability in assay [1] (first compound 0.001 µM) amounted to 0.648; in assay [1] (first compound 0.003162 µM), 0.595; in assay [1] (first compound 0.01 µM), 0.553; in assay [1] (first compound 0.03162 µM), 0.265; in assay [1] (first compound 0.1 µM), 0.159; in assay [2] (first compound 0.001 µM), 0.361. For the same cell line, the relative viability in assay [2] (first compound 0.003162 µM) was determined as 0.396; in assay [2] (first compound 0.01 µM), 0.389; in assay [2] (first compound 0.03162 µM), 0.175; in assay [2] (first compound 0.1 µM), 0.146; in assay [3] (first compound 0.001 µM) it was 0.436; in assay [3] (first compound 0.003162 µM), 0.322. For the same cell line, the relative viability came to 0.165 in assay [3] (first compound 0.01 µM); 0.13 in assay [3] (first compound 0.03162 µM); 0.121 in assay [3] (first compound 0.1 µM); 0.195 in assay [4] (first compound 0.001 µM); 0.177 in assay [4] (first compound 0.003162 µM); 0.175 in assay [4] (first compound 0.01 µM). In addition, the relative viability came out at 0.119 in assay [4] (first compound 0.03162 µM) and 0.148 in assay [4] (first compound 0.1 µM).
For HCC-78, the relative viability in assay [1] (first compound 0.001 µM) came to 0.198; in assay [1] (first compound 0.003162 µM), 0.247; in assay [1] (first compound 0.01 µM), 0.201; in assay [1] (first compound 0.03162 µM) it was 0.148; in assay [1] (first compound 0.1 µM), 0.132; in assay [2] (first compound 0.001 µM) it was 0.622. For the same cell line, the relative viability in assay [2] (first compound 0.003162 µM) turned out to be 0.651; in assay [2] (first compound 0.01 µM), 0.367; in assay [2] (first compound 0.03162 µM), 0.343; in assay [2] (first compound 0.1 µM) it was 0.268; in assay [3] (first compound 0.001 µM) it was 0.581; in assay [3] (first compound 0.003162 µM) it was 0.538. Further, the relative viability turned out to be 0.285 in assay [3] (first compound 0.01 µM); 0.209 in assay [3] (first compound 0.03162 µM); 0.233 in assay [3] (first compound 0.1 µM); 0.495 in assay [4] (first compound 0.001 µM); 0.446 in assay [4] (first compound 0.003162 µM); 0.388 in assay [4] (first compound 0.01 µM). Moreover, the figures for the relative viability in assay [4] (first compound 0.03162 µM) and in assay [4] (first compound 0.1 µM) were 0.302 and 0.294, respectively.
For the cell line NCI-H2085, the relative viability came to 0.45 in assay [1] (first compound 0.001 µM); 0.448 in assay [1] (first compound 0.003162 µM); 0.461 in assay [1] (first compound 0.01 µM); 0.344 in assay [1] (first compound 0.03162 µM); 0.347 in assay [1] (first compound 0.1 µM); 0.583 in assay [2] (first compound 0.001 µM). Also, the relative viability came to 0.507 in assay [2] (first compound 0.003162 µM); 0.486 in assay [2] (first compound 0.01 µM); 0.425 in assay [2] (first compound 0.03162 µM); 0.428 in assay [2] (first compound 0.1 µM); 0.79 in assay [3] (first compound 0.001 µM); 0.61 in assay [3] (first compound 0.003162 µM). Further, the relative viability in assay [3] (first compound 0.01 µM) was 0.422; in assay [3] (first compound 0.03162 µM) it was 0.282; in assay [3] (first compound 0.1 µM), 0.271; in assay [4] (first compound 0.001 µM) it was 0.441; in assay [4] (first compound 0.003162 µM), 0.433; in assay [4] (first compound 0.01 µM), 0.316. The values for the relative viability in assay [4] (first compound 0.03162 µM) and in assay [4] (first compound 0.1 µM) were 0.314 and 0.3, respectively.
